Assay results published in the supplement of paper PMC10307832.

Columns and labels:
Assay in all cases: relative viability (nuclei count vs DMSO), 5 days (fraction); higher = more cells survive
17-AAG + Phenformin = compound: C=CCNC1=C2C[C@@H](C)C[C@H](OC)[C@H](O)[C@@H](C)/C=C(\C)[C@H](OC(N)=O)[C@@H](OC)/C=C\C=C(/C)C(=O)NC(=CC1=O)C2=O [17-AAG] + N=C(N)NC(=N)NCCc1ccccc1 [Phenformin] (partner 250 µM)
Procedure, shortened: (§1)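 Medians of duplicate plates are given as relative viability. That measure is the nuclei count in treated wells divided by the count in vehicle wells. Counts were taken on 4× images of lung cancer cell lines in 1536-well plates, 5 days after pin-tool dosing the day after seeding with one drug alone or a fixed anchor-drug dose plus five library-drug doses (not always all listed) in √10 steps.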

17-AAG + Trametinib = compound: C=CCNC1=C2C[C@@H](C)C[C@H](OC)[C@H](O)[C@@H](C)/C=C(\C)[C@H](OC(N)=O)[C@@H](OC)/C=C\C=C(/C)C(=O)NC(=CC1=O)C2=O [17-AAG] + CC(=O)Nc1cccc(-n2c(=O)n(C3CC3)c(=O)c3c(Nc4ccc(I)cc4F)n(C)c(=O)c(C)c32)c1 [Trametinib] (partner 0.02 µM)
Procedure, shortened: as §1

17-AAG + OSI-027 = compound: C=CCNC1=C2C[C@@H](C)C[C@H](OC)[C@H](O)[C@@H](C)/C=C(\C)[C@H](OC(N)=O)[C@@H](OC)/C=C\C=C(/C)C(=O)NC(=CC1=O)C2=O [17-AAG] + COc1cccc2cc(-c3nc([C@H]4CC[C@H](C(=O)O)CC4)n4ncnc(N)c34)[nH]c12 [OSI-027] (partner 0.5 µM)
Procedure, shortened: as §1

17-AAG = compound: C=CCNC1=C2C[C@@H](C)C[C@H](OC)[C@H](O)[C@@H](C)/C=C(\C)[C@H](OC(N)=O)[C@@H](OC)/C=C\C=C(/C)C(=O)NC(=CC1=O)C2=O [17-AAG]
Procedure, shortened: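 Only plates meeting two conditions passed: control CV below 25% and at least one doubling. Lung cancer cell lines, kept overnight at 37 °C in 1536-well plates, were pinned with five library-drug doses (not always all listed) √10 apart on vehicle-anchored plates and grown 5 days without medium change. A one-step fix, permeabilisation and Hoechst stain preceded 4× imaging and MetaXpress nuclear counting. Viability equals treated-well nuclei divided by vehicle-well nuclei, as the median over plates.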

Cell Line	relative viability (17-AAG + Phenformin; first compound 0.00128 µM)	relative viability (17-AAG + Phenformin; first compound 0.004048 µM)	relative viability (17-AAG + Phenformin; first compound 0.0128 µM)	relative viability (17-AAG + Phenformin; first compound 0.04048 µM)	relative viability (17-AAG + Phenformin; first compound 0.128 µM)	relative viability (17-AAG + Trametinib; first compound 0.00128 µM)	relative viability (17-AAG + Trametinib; first compound 0.004048 µM)	relative viability (17-AAG + Trametinib; first compound 0.0128 µM)	relative viability (17-AAG + Trametinib; first compound 0.04048 µM)	relative viability (17-AAG + Trametinib; first compound 0.128 µM)	relative viability (17-AAG + OSI-027; first compound 0.00128 µM)	relative viability (17-AAG + OSI-027; first compound 0.004048 µM)	relative viability (17-AAG + OSI-027; first compound 0.0128 µM)	relative viability (17-AAG + OSI-027; first compound 0.04048 µM)	relative viability (17-AAG + OSI-027; first compound 0.128 µM)	relative viability (17-AAG; 0.00128 µM)	relative viability (17-AAG; 0.004048 µM)	relative viability (17-AAG; 0.0128 µM)	relative viability (17-AAG; 0.04048 µM)	relative viability (17-AAG; 0.128 µM)
201T	0.484	0.391	0.341	0.244	0.248	0.778	0.729	0.688	0.702	0.682	0.823	1.01	0.443	0.165	0.165	0.953	0.976	0.936	0.425	0.316
A549	0.154	0.0295	0.0354	0.0477	0.03	–	–	–	–	–	–	–	–	–	–	0.948	0.86	0.115	0.0515	0.0401
A-427	0.353	0.347	0.374	0.271	0.167	0.799	0.759	0.946	0.419	0.282	0.484	0.502	0.502	0.343	0.181	0.967	1.01	0.95	0.62	0.265
ABC-1	0.212	0.261	0.255	0.246	0.261	–	–	–	–	–	0.393	0.493	0.56	0.508	0.458	0.916	0.978	1.09	0.892	0.708
BEN	0.268	0.26	0.222	0.197	0.167	1.07	1.16	1.31	1.07	0.613	0.337	0.307	0.256	0.232	0.2	1.01	1.1	1.11	0.829	0.36
CAL-12T	0.56	0.498	0.563	0.447	0.15	0.394	0.352	0.319	0.308	0.146	0.564	0.807	0.713	0.411	0.128	0.947	1.02	0.948	0.625	0.24
COR-L23	0.459	0.438	0.419	0.269	0.103	0.664	0.504	0.438	0.158	0.0809	0.853	0.786	0.817	0.661	0.0974	0.987	1.02	1.01	0.668	0.147
COR-L 105	0.55	0.453	0.463	0.354	0.299	0.473	0.406	0.501	0.375	0.335	0.719	0.829	0.704	0.351	0.306	0.917	0.966	1	0.488	0.547
Calu-6	–	–	–	–	–	–	–	–	–	–	–	–	–	–	–	1.02	0.984	0.946	0.3	0.148
ChaGo-K-1	0.444	0.587	0.422	0.273	0.163	0.918	0.873	0.767	0.857	0.735	0.514	0.71	0.51	0.24	0.16	0.961	0.966	0.877	0.463	0.307
EKVX	0.26	0.222	0.139	0.195	0.0638	0.341	0.306	0.289	0.127	0.117	0.77	0.649	0.746	0.177	0.152	1	1.02	1.05	0.261	0.229
EMC-BAC-2	0.576	0.535	0.427	0.261	0.189	0.946	0.821	0.765	0.335	0.235	0.464	0.486	0.438	0.3	0.216	1.13	0.986	0.889	0.396	0.362
EPLC-272H	0.32	0.327	0.202	0.095	0.0918	0.278	0.268	0.229	0.169	0.135	0.275	0.277	0.247	0.145	0.112	1.02	0.968	0.663	0.159	0.104
H3255	0.365	0.368	0.331	0.234	0.189	0.597	0.556	0.544	0.31	0.21	0.569	0.576	0.49	0.274	0.268	0.995	0.973	0.948	0.313	0.243
HARA	0.443	0.456	0.367	0.418	0.113	0.893	0.598	0.81	0.66	0.149	0.503	0.56	0.489	0.151	0.0613	0.952	1.12	1	0.474	0.183
HCC-15	0.433	0.33	0.146	0.124	0.107	0.415	0.416	0.286	0.214	0.13	0.628	0.54	0.179	0.107	0.106	0.94	0.923	0.557	0.14	0.122
